Results on one compound are retold here after patent publication US6774121B1, “Phospholipid prodrugs of anti-proliferative drugs” (D-Pharm, Ltd., priority 1999, dated 2004).

Data set [1] has as its system human leukemia cell line CCRF-CEM (CEM). In words: MTT cell growth inhibition, CEM cells (Example 4). Format: cell-based. As to conditions: Homo sapiens, CCRF-CEM; 72 hours, MTT assay; read-out: EC50, nMol CEM. On the procedure: (§1) A series of methotrexate derivatives were screened for their inhibitory effect on cell growth. Three tumor cell lines were used for this screen: i) human leukemia cell line CCRF-CEM which is MTX-sensitive (herein denoted as CEM), ii) a mutant of CEM cell line which is MTX-resistant due to a mutation in the RFC (herein denoted as CEM-MTX; provided by Dr. […], Technion, Israel), and iii) rat C6 glioma cell line. Cells were seeded at a density of 10^4 cells/ml in RPMI medium supplemented with 10% FCS in 96 well plates. The cultured cells were incubated, during their linear growth phase, in the presence and absence of various concentrations of MTX derivatives. The tested compounds were prepared as 1 mM stock in absolute ethanol or DMSO and were diluted into the medium. The highest vehicle presence in the assay was 5% of the vehicle. After 72 hours at 37° C. the cytotoxic effect on the cells was estimated by using the colorimetric MTT assay (Mosmann (1983) J. Immunol Methods 65: 55-63) that measures mitochondrial reductase activity and serves for quantitative assessment of cellular viability. […] The EC50 values were calculated from dose response curves for each tested compound.

Data set [2] relates to CEM-MTX (MTX-resistant mutant of CEM, mutation in the RFC). In words: MTT cell growth inhibition, MTX-resistant CEM-MTX cells (Example 4). The data set is classed as cell-based, human. To be noted: Homo sapiens; 72 hours, MTT assay; read-out: EC50, nMol CEM-MTX. How it is done:
A series of methotrexate derivatives were screened for their inhibitory effect on cell growth. Three tumor cell lines were used for this screen: i) human leukemia cell line CCRF-CEM which is MTX-sensitive (herein denoted as CEM), ii) a mutant of CEM cell line which is MTX-resistant due to a mutation in the RFC (herein denoted as CEM-MTX; provided by Dr. Y. Assraf, Technion, Israel), and iii) rat C6 glioma cell line.
Cells were seeded at a density of 10^4 cells/ml in RPMI medium supplemented with 10% FCS in 96 well plates. The cultured cells were incubated, during their linear growth phase, in the presence and absence of various concentrations of MTX derivatives. The tested compounds were prepared as 1 mM stock in absolute ethanol or DMSO and were diluted into the medium. The highest vehicle presence in the assay was 5% of the vehicle. After 72 hours at 37° C. the cytotoxic effect on the cells was estimated by using the colorimetric MTT assay (Mosmann (1983) J. Immunol Methods 65: 55-63) that measures mitochondrial reductase activity and serves for quantitative assessment of cellular viability. Drug concentration required for inhibiting the growth of 50% of cell population in culture over a 72 hour period incubation, is defined as EC50.
The EC50 values were calculated from dose response curves for each tested compound.
(Tetrazolium dyes change colour on reduction, which living cells bring about.)

A further data set has as its system rat C6 glioma cell line. In words: MTT cell growth inhibition, C6 glioma cells (Example 4). The data set is classed as cell-based. To be noted: Rattus norvegicus, C6 glioma; 72 hours, MTT assay; read-out: EC50, nMol C6 glioma. How it is done: as §1
Data set [3] has as its system Friend cells (an erythroleukemic cell line). In words: MTT cytotoxicity, Friend cells (Example 5). The data set is classed as cell-based. As to conditions: 72 hour. How it is done:
The toxicity of methotrexate derivatives of the invention (DP-MTX) was evaluated in an additional cell-culture system. The doses required to inhibit the growth of cultured Friend cells (an erythroleukemic cell line) by 50%, over a 72 hour period (ED50), were determined using a mitochondrial viability (MTT) endpoint assay.
Friend cells were seeded at a density of 10^4 cells/ml in RPMI medium supplemented with 10% FCS in 96 well plates. The cultured cells were incubated, during their linear growth phase, in the presence and absence of various concentrations of MTX derivatives. After 72 hours at 37° C., cell viability was estimated by using the colorimetric MTT assay.

For data set [4], the system named is Wild type human leukemia CEM cells. In words: MTT cytotoxicity with and without Leucovorin, CEM cells (Example 6). To be noted: CCRF-CEM, 72 hours. The data set is classed as cell-based. On the procedure: (§2) Leucovorin is a reduced folate, used in chemotherapy with high doses of methotrexate for ‘rescue’ of host from toxicity.
(§3) Wild type human leukemia CEM cells or the MTX-resistant mutant cells, CEM-MTX, were plated into 96 well plates containing RPMI, 10% FCS at a concentration of 5×10^4 cells/ml. […] Leucovorin, at a final concentration of 10 μM, was added to some of the plates as indicated. The plates were incubated for 72 hours (37° C., 5% CO2) before being assayed for viability using the colorimetric MTT assay (Mosmann (1983) J. Immunol Methods 65: 55-63).

Data set [5] relates to MTX-resistant mutant cells, CEM-MTX. In words: MTT cytotoxicity with and without Leucovorin, CEM-MTX cells (Example 6). As to conditions: Homo sapiens, 72 hours. Format: cell-based. How it is done:
as §2, §3

For another data set, the system named is C6. In words: MTT cytotoxicity on tumor cell lines, C6 (Example 8). The data set is classed as cell-based. As to conditions: C6, Glioma (rat), 72 hours. On the procedure:
(§4) Cell viability was analyzed after 72 hours incubation (37° C., 5% CO2) using the colorimetric MTT assay (Mosmann (1983) J. Immunol Methods 65: 55-63).

Another data set relates to Du148. In words: MTT cytotoxicity on tumor cell lines, Du148 (Example 8). Format: cell-based. To be noted: Du148, Prostate cancer (human), 72 hours. On the procedure:
as §4

Data set [6] deals with L1210. In words: MTT cytotoxicity on tumor cell lines, L1210 (Example 8). As to conditions: L1210, lymphocytic leukemia (mouse), 72 hours. Format: cell-based. On the procedure:
as §4

The test system of the next data set is A431. In words: MTT cytotoxicity on tumor cell lines, A431 (Example 8). The data set is classed as cell-based. As to conditions: A-431, A431, Epidermoid carcinoma (human), 72 hours. On the procedure: as §4
Another data set concerns T47D. In words: MTT cytotoxicity on tumor cell lines, T47D (Example 8). The data set is classed as cell-based. As to conditions: Mammary cancer (human), 72 hours. On the procedure:
as §4

Data set [7] has as its system L1210. In words: MTT cytotoxicity, parent L1210 cells (Example 9). The data set is classed as cell-based. To be noted: Mus musculus.
Data set [8] concerns L1210 murine leukemia cells. In words: Survival of mice transplanted i.p. with L1210 leukemia cells. Format: in vivo, mouse. On the procedure:
The anti-tumor effects of DP-MTX were evaluated in vivo on mice transplanted with L1210 murine leukemia cells.
Mice of strain B6D2F 1/J (stock number 100006), which are F1 cross of C57/BJ×DBA/2J, were purchased from The Jackson Laboratory (JAX Mice & Mouse Model Related Services, […], USA). Animals were allowed 10 days adjustment time at our animal care facility before initiation of the experiment.
Mice were transplanted with 1×10^6 L1210 (mouse leukemia; ATCC# CCL-219) or L1210MTX (RFC-mediated MTX resistant L1210 mutant; provided by Dr. Y. Assraf, Technion, Israel) cells by injection into the peritoneum (i.p.) (day 1). […] Another group of 8 animals were injected with vehicle solution (2% propylene-glycol, 0.2% Tween-80 in PBS) and serve as control group. […] Mice survival was monitored daily until the end of the experiment on day 21.

[9] abbreviates: 10 μM Leucovorin, read-out: EC50, nMol + 10 μM Leucovorin.
Setting [10] is: read-out: EC50, nMol No Leucovorin.

Where two headings read alike, the source gives them in different places.

As usually defined, the EC50 is the concentration needed to bring the measured effect to its halfway point. In the case of `CN(Cc1cnc2nc(N)nc(N)c2n1)c1ccc(C(=O)N[C@@H](CCC(=O)O)C(=O)O)cc1` [MTX, Methotrexate], the EC50 came to 0.021 µM in [1]; 2.54 µM in [2]; 0.046 µM in the data set on rat C6 glioma cell line; 0.91 ± 0.378 µM in [4] (setting [9]); 0.023 ± 0.013 µM in data set [4] (setting [10]); 20 ± 12.8 µM in data set [5] (setting [9]). Besides, the half-maximal effective concentration (EC50) in [5] (setting [10]) worked out at 2.54 ± 0.224 µM; in the data set with C6, 0.046 µM; with Du148, 0.029 µM; in the data set with L1210 [6], 0.013 µM; in the data set with A431, 0.85 µM; in the data set on T47D, 50 µM. Moreover, the EC50 in the data set on L1210 [7] stood at 0.014 µM. For the same compound, the “ED50” value in [3] was determined as 10 nmol. Besides, in [8] (3 mg/Kg MTX or molar equivalent, i.p. every two days, day 3 to 17), the “mice surviving at the end of the experiment, on day 21” value is given as “one”. Moreover, the “mortality caused by the treatment by itself” value in data set [8] (3 mg/Kg i.p.) was “no mortality”. For the same compound, in [8] (3 mg/Kg i.p. every two days, day 3 to 17), the “day on which animal death started” value is 15 days.
